Assay results as given in patent US20240382508A1, “REGENERATIVE AGENT FOR BONE TISSUE AND LUNG TISSUE, AND PHARMACEUTICAL COMPOSITION FOR REGENERATING BONE TISSUE AND LUNG TISSUE” (NIIGATA UNIVERSITY, priority 2021, published 2024).

Key:
[1] = tested on: experimental periodontitis model mice; assay: bone regeneration in experimental periodontitis model mice (teeth ligated with silk threads); assay type: in vivo, mouse
Description: Experimental periodontitis model mice in which teeth are ligated with silk threads are useful models for inflammatory bone destruction research because inflammations and bone resorption occur in about 10 days after the ligation. The above-described experimental periodontitis models were produced by using 6-week-old wild-type mice (N=8, male C57BL/6N mice, manufactured by CLEA Japan, Inc.), 22-month-old aging mice (N=4, male C57BL/6N mice, manufactured by CLEA Japan, Inc.), and 6-week-old DEL-1-deficient mice (N=8, male C57BL/6N mice (manufactured by CLEA Japan, Inc.), a method for producing the deficient mice was as described in Non Patent Document 1), the silk threads were removed 10 days after the ligation, a remission phase of inflammation of 5 days passed, and in the wild-type mice, new bone formation was recognized at the site of resorbed bone defect while no repair mechanism of the periodontal tissue by DEL-1 was recognized.
The experimental periodontitis models described in Example 1 were produced by using 6-week-old wild-type mice (N=8, male C57BL/6N mice, manufactured by CLEA Japan, Inc.), 22-month-old aging mice (N=4, male C57BL/6N mice, manufactured by CLEA Japan, Inc.), and 6-week-old DEL-1-deficient mice (N=8, male C57BL/6N mice (manufactured by CLEA Japan, Inc.), a method for producing the deficient mice was as described in Non Patent Document 1), the silk threads were removed 10 days after the ligation to experimentally induce periodontitis, subsequently a bone regeneration period of 5 days was provided, and then the amount of regeneration of resorbed bone was measured using a stereomicroscope and image measurement software (manufactured by Nikon Corporation). Erythromycin (10 mg/kg) and ethanol (final concentration 0.1% by mass) were intraperitoneally administered once after the removal of the silk threads. In addition, DEL-1 (1 μg) and Fc control (0.84 μg) were directly inoculated into the gingiva after the removal of the silk threads. The results are shown in FIG. 3 (left: wild-type mice, right: DEL-1-deficient mice) and FIG. 4 (aging mice).
Next, the experimental periodontitis model described in Example 1 was produced by using 22-month-old aging mice (N=4, male C57BL/6N mouse, manufactured by CLEA Japan, Inc.), the silk threads were removed 10 days after the ligation to experimentally induce periodontitis, subsequently a bone regeneration period of 5 days was provided, and the amount of regeneration of resorbed bone was measured using a stereomicroscope and image measurement software (manufactured by Nikon Corporation). Erythromycin (ERM) (20 mg/kg), azithromycin (AZM) (20 mg/kg), clarithromycin (CLM) (20 mg/kg), and ethanol (final concentration 0.1% by mass) as a control were intraperitoneally administered once after the removal of the silk threads. […] In addition, there was no difference in the amount of bone regeneration between the macrolide antimicrobial agent-administered groups.

[2] = tested on: α-SMA-positive mesenchymal stem cells; assay: immunofluorescence staining of periodontal tissue of experimental periodontitis mice; assay type: in vivo, mouse; conditions: wild-type mice; jawbone slices
Description: Next, jawbones of the wild-type mice to which erythromycin had or had not been administered were extracted and fixed, and then slice preparations were produced. Next, immunofluorescence staining was performed by using an anti-α-SMA antibody (manufactured by Abcam, Ltd.) fluorescently labeled with Alexa Fluor (registered trademark) 488 (manufactured by Thermo Fisher Scientific, Inc.), an anti-CD31/PECAM-1 antibody (manufactured by Thermo Fisher Scientific, Inc.) fluorescently labeled with Alexa Fluor (registered trademark) 647 (manufactured by Thermo Fisher Scientific, Inc.), and an anti-Ki67 antibody (manufactured by R&D Systems, Inc.) fluorescently labeled with Alexa Fluor (registered trademark) 594 (manufactured by Thermo Fisher Scientific, Inc.). Observation images (magnification: 200 times) obtained with a fluorescence microscope (ECLIPSE Ni-E, manufactured by Nikon Corporation) are shown in FIG. 5.

acute lung disorder mice = assay: LPS-induced acute lung disorder, HE staining of lung tissue; assay type: in vivo, mouse; conditions: 10 mg/kg intraperitoneally once a day for two weeks
Description: Acute lung disorder was induced by administering lipopolysaccharide (LPS) to the tracheae and bronchi of mice (the details of a production method were as described in Non Patent Document 1). Erythromycin (10 mg/kg) was administered to 6-week-old wild-type mice (N=4, male C57BL/6N mice, manufactured by CLEA Japan, Inc.) and 6-week-old DEL-1-deficient mice (N=4, male C57BL/6N mice (manufactured by CLEA Japan, Inc.), a method for producing the deficient mice was as described in Non-Patent Document 1), by intraperitoneal administration once a day for a total of two weeks. After the administration, the lungs were extracted from each mouse and fixed, and then slice preparations were produced. Next, hematoxylin and eosin (HE) staining was performed. Observation images (magnifications: 10 times and 200 times) obtained with a microscope (manufactured by Nikon Corporation, ECLIPSE Ni-E) are shown in FIG. 7A to 7C.

[3] = tested on: bone defects in the jawbones; assay: jawbone defect regeneration in cynomolgus monkeys (microCT); assay type: in vivo; conditions: 200 μg at bone defect site, one month
Description: Bone defects with a diameter of 2 cm and a depth of 2 cm were artificially produced in the jawbones of young (2 years old) and aged (10 years old) cynomolgus monkeys by using a round steel bar. Next, 200 μg of each of erythromycin, clarithromycin, and azithromycin were added to the bone defect sites. As controls, a non-administered group and a group administered with 200 μg of REGROTH (registered trademark), which has been approved as a bone regenerative agent, were also prepared. The amount of bone regeneration after one month from the administration of each drug was checked by using microCT. In FIG. 10, the symbol * indicates p<0.01.

[4] = tested on: iCell mesenchymal stem cells; assay: bone nodule measurement in mesenchymal stem cells induced from human iPS cells; assay type: cell-based; conditions: 10 μg/mL for each; 15 days; bone differentiation medium
Description: iCell (registered trademark) mesenchymal stem cells (iCell (registered trademark) MSCs) (#01279, manufactured by Fujifilm Corporation) (1×10^4 cells/mL) obtained by inducing human mesenchymal stem cells from iPS cells, were cultured in α-MEM and a bone differentiation medium (containing 50 μg/mL ascorbic acid and 10 mM β-glycerol 2-phosphate). Ethanol (final concentration 0.1% by mass), or erythromycin, clarithromycin, or azithromycin (10 μg/mL for each) was added to the medium. The medium was exchanged every 3 days, and after 15 days, the cells were stained with Alizarin red S, followed by performing of bone nodule measurement. The results are shown in FIG. 18 (stained images) and FIG. 19 (graph showing the proportion of bone nodules). In FIG. 18 and FIG. 19, the ethanol (final concentration 0.1% by mass)-added group is a control. In FIG. 19, the symbol * indicates p≤0.05, the symbol ** indicates p≤0.01, the symbol *** indicates p≤0.001, and the symbol **** indicates p≤0.0001.

DEL-1 = conditions: versus resolvin D1 or DHEA; Non-Patent Document 1; cited from earlier work

## CC[C@H]1OC(=O)[C@H](C)[C@@H](O[C@H]2C[C@@](C)(OC)[C@@H](O)[C@H](C)O2)[C@H](C)[C@@H](O[C@@H]2O[C@H](C)C[C@H](N(C)C)[C@H]2O)[C@](C)(O)C[C@@H](C)C(=O)[C@H](C)[C@@H](O)[C@]1(C)O [erythromycin]
[1]; 6-week-old wild-type mice, erythromycin 10 mg/kg intraperitoneally once, 5 days regeneration period
  bone regeneration (FIG. 3): bone regeneration was recognized irrespective of the presence or absence of the administration of erythromycin
[1]; 22-month-old aging mice, 20 mg/kg intraperitoneally once, 5 days regeneration period
  bone regeneration (FIG. 9): bone regeneration was recognized
[1]; 22-month-old aging mice, erythromycin 10 mg/kg intraperitoneally once or DEL-1 1 μg into the gingiva, 5 days
  bone regeneration (FIG. 4): bone regeneration was recognized
[1]; DEL-1-deficient mice, erythromycin 10 mg/kg intraperitoneally once or DEL-1 1 μg into the gingiva, 5 days
  bone regeneration (FIG. 3): bone regeneration was not recognized
[2]
  proportion of α-SMA-positive mesenchymal stem cells (FIG. 5): the proportion of α-SMA-positive mesenchymal stem cells was increased
Acute lung disorder mice; DEL-1-deficient mouse
  tissue repair and restructuring of the alveolar structure (FIG. 7C): normal tissue repair and restructuring of the alveolar structure were not recognized
Acute lung disorder mice; wild-type mouse
  tissue repair and restructuring of the alveolar structure (FIG. 7B): normal tissue repair and restructuring of the alveolar structure were recognized
[3]; aged (10 years old) cynomolgus monkeys
  bone regeneration effect (FIG. 10): a bone regeneration effect was recognized
[3]; young (2 years old) cynomolgus monkeys
  bone regeneration effect (FIG. 10): a bone regeneration effect was recognized
[4]
  formation of bone nodules (FIG. 18, FIG. 19): the formation of bone nodules was recognized
DEL-1
  DEL-1 induction potency relative to resolvin D1 or DHEA: about three
